Assay results from patent US20250195530A1, “POLQ INHIBITORS” (ASTRAZENECA AB, priority 2022, published 2025).
Like-named read-outs stand apart in the source and are kept apart here.

Columns and labels:
[1] = tested on: DLD-1 BRCA2−/− cells; assay: Homologous recombination synthetic lethal inhibition of proliferation, DLD-1 BRCA2-/- (Cell Titre Glo 3D); assay type: cell-based; conditions: for IC50: Homo sapiens, read-out: POLQ PD Prolif Lumin BRCA2 −/− mean pIC50 (converted)
Summary of the method: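 Wild-type DLD-1 serves as the control for non-specific toxicity, and BRCA2-null DLD-1 as the homologous-recombination-deficient line. Both grew with compound from 10 μM down to 0.51 nM, re-dosed after 6 days. Luminescent ATP content (CellTiter-Glo 3D) was read after 7 or 12 days, respectively, to give IC50 values.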

[2] = tested on: DLD-1 cells; assay: Inhibition of proliferation, DLD-1 BRCA2 wt control (Cell Titre Glo 3D); assay type: cell-based; conditions: for IC50: Homo sapiens, read-out: POLQ PD Prolif Lumin DLD1 mean pIC50 (converted)
Description: This assay identifies anti-proliferative effects of POLQ compounds in the homologous recombination deficient colorectal cell line DLD-1 BRCA2−/− over 8-9 population doublings (7 days for DLD-1 and 12 days for DLD-1 BRCA2−/−). DLD1 BRCA2 wt are used as a control to detect cell toxic effects not specific to homologous recombination deficiency.
DLD-1 BRCA2−/− and DLD-1 cells were kept in continuous culture in Assay Medium (RPMI 1640 phenol red free (Sigma R7509) containing 1% GlutaMAX (Gibco 35050) and 10% Foetal Bovine Serum (Gibco 10270-106)). On the day of the assay cells in culture of ˜80-90% confluent were used. Cell monolayers were washed with 10 mL PBS, then removed and added 2 mL TrypLE Express (Gibco 12604). The cells with TrypLE Express were incubated for 5 minutes in cell culture incubator and then the detached cells resuspend in 15 mL Assay Medium. Cells were counted using a ViCell and the cell images were monitored for clumps of cells, ideally they should be single or <3 cell clusters. The cells were diluted to 3,000 cells/mL of DLD-1 BRCA2−/− and 1,500 cells/mL of DLD-1 in Assay Medium and 100 μL added per well of transparent bottomed, black, tissue culture-treated 96-well plates (CoStar, No. 3904) Assay Ready Plates. The Assay Ready Plates contain a 10 point 10 μM to 0.51 nM dose range with three-fold dilutions in DMSO with a final volume of 100 nL. The plates were incubated at 37° C. with 5% C02 for 6 days. On day 6, 100 μL/well of Assay Medium was added to duplicate Assay Ready Plates. 90 μL of culture medium was removed from the cell plates and replenished with the Assay Media and compounds from the duplicate Assay Ready Plates using the Bravo. The plates were further incubated at 37° C. with 5% CO2. On day 7 the plates containing DLD-1 and Cell Titre Glo 3D (Promega G9683) were equilibrated to room temperature, then 60 μL of Cell Titre Glo 3D was added per well and incubated on a shaking platform for 30 min. Plates were read on the Envision measuring luminescence for 1 second per well. On day 12 the plates containing DLD-1 BRCA2−/− cells and Cell Titre Glo 3D (Promega G9683) were equilibrated to room temperature, then 60 μL Cell Titre Glo 3D added per well and incubated on a shaking platform for 30 min. Plates were read on the Envision measuring luminescence for 1 second per well. The data was exported into a suitable software package (such as Genedata) to perform curve fitting analysis. Inhibition of cell proliferation was expressed as an IC5o value and was determined by calculation of the concentration of compound that was required to give a 50% reduction of the average maximum Total Intensity signal.

Row | Compound | IC50 ([2]; DLD-1, DLD1 BRCA2 wt, mean) | IC50 ([1]; DLD-1, DLD-1 BRCA2 −/−, mean) | further results
1 | CC(CCOc1ccc(-c2nc3c(OC4(C)CC4)ncnc3n2Cc2cc(Cl)ccc2C#N)c(Cl)c1)C(=O)O (racemic) [Example U9, 4-(3-chloro-4-(9-(5-chloro-2-cyanobenzyl)-6-(1-methylcyclopropoxy)-9H-purin-8-yl)phenoxy)-2-methylbutanoic acid] | > 10000 nM | 79.4 nM | –
2 | CC(CCOc1ccc(-c2nc3c(OC4(C)CC4)ncnc3n2Cc2c(F)cccc2C#N)c(Cl)c1)C(=O)O (racemic) [Example U13, 4-(3-chloro-4-(9-(2-cyano-6-fluorobenzyl)-6-(1-methylcyclopropoxy)-9H-purin-8-yl)phenoxy)-2-methylbutanoic acid] | > 10000 nM | 3160 nM | –
3 | COc1ccc(Cl)cc1Cn1c(-c2ccc(OCC(C)CC(=O)O)cc2Cl)nc2c(OC3(C)CC3)ncnc21 (racemic) [Example U42, 4-(3-chloro-4-(9-(5-chloro-2-methoxybenzyl)-6-(1-methylcyclopropoxy)-9H-purin-8-yl)phenoxy)-3-methylbutanoic acid] | > 10000 nM | 39.8 nM | –
4 | COc1ccc(Cl)cc1Cn1c(-c2cccc(CCCC(C)C(=O)O)c2Cl)nc2c(OC3(C)CC3)ncnc21 (racemic) [Example U55, 5-(2-chloro-3-(9-(5-chloro-2-methoxybenzyl)-6-(1-methylcyclopropoxy)-9H-purin-8-yl)phenyl)-2-methylpentanoic acid] | > 10000 nM | 126 nM | –
5 | COc1ccc(Cl)cc1Cn1c(-c2ccc(CCCC(C)C(=O)O)cc2Cl)nc2c(OC3(C)CC3)ncnc21 (racemic) [Example U56, 5-(3-chloro-4-(9-(5-chloro-2-methoxybenzyl)-6-(1-methylcyclopropoxy)-9H-purin-8-yl)phenyl)-2-methylpentanoic acid] | > 10000 nM | 126 nM | –
6 | CC(C)Oc1ccc2c(c1)nc(-c1ccc(OCCC3CCCN3C)cc1Cl)n2Cc1ccccc1 (single isomer, unassigned) [Example A8, 1-benzyl-2-(2-chloro-4-(2-(1-methylpyrrolidin-2-yl)ethoxy)phenyl)-5-isopropoxy-1H-benzo[d]imidazole] | – | – | IC50 ([1]; DLD-1, 288 h, DLD-1 BRCA2−/− cells, 12 days): 126 nM; IC50 ([2]; DLD-1, 168 h, DLD-1 BRCA2 wt cells, 7 days): 501 nM
7 | CC(C)Oc1ccc2c(c1)nc(-c1ccc(OCCC3CCCN3C)cc1Cl)n2Cc1ccccc1 (single isomer, unassigned) [Example A9, 1-benzyl-2-(2-chloro-4-(2-(1-methylpyrrolidin-2-yl)ethoxy)phenyl)-5-isopropoxy-1H-benzo[d]imidazole] | – | – | POLQ PD Prolif Lumin BRCA2 −/− mean pIC50 ([1]; DLD-1 BRCA2−/− cells, 12 days): 6.7; POLQ PD Prolif Lumin DLD1 mean pIC50 ([2]; DLD-1 BRCA2 wt cells, 7 days): 6.3

Further lines, with some results ahead:

Row | IC50 ([2]; DLD-1, DLD1 BRCA2 wt, mean) | Compound | IC50 ([1]; DLD-1, DLD-1 BRCA2 −/−, mean) | further results
8 | > 10000 nM | COc1ccc(C)cc1Cn1c(-c2ccc(OCCC(C)C(=O)O)cc2Cl)nc2c(OC3(C)CC3)ncnc21 (racemic) [Example U1, 4-(3-chloro-4-(9-(2-methoxy-5-methylbenzyl)-6-(1-methylcyclopropoxy)-9H-purin-8-yl)phenoxy)-2-methylbutanoic acid] | 50.1 nM | –
9 | > 10000 nM | COc1ccc(F)cc1Cn1c(-c2ccc(OCCC(C)C(=O)O)cc2Cl)nc2c(OC3(C)CC3)ncnc21 (racemic) [Example U2, 4-(3-chloro-4-(9-(5-fluoro-2-methoxybenzyl)-6-(1-methylcyclopropoxy)-9H-purin-8-yl)phenoxy)-2-methylbutanoic acid] | 63.1 nM | –
10 | > 10000 nM | COc1ccc(C#N)cc1Cn1c(-c2ccc(OCCC(C)C(=O)O)cc2Cl)nc2c(OC3(C)CC3)ncnc21 (racemic) [Example U14, 4-(3-chloro-4-(9-(5-cyano-2-methoxybenzyl)-6-(1-methylcyclopropoxy)-9H-purin-8-yl)phenoxy)-2-methylbutanoic acid] | 398 nM | –
11 | > 10000 nM | COc1ccc(Cl)c(F)c1Cn1c(-c2ccc(OCCC(C)C(=O)O)cc2Cl)nc2c(OC3(C)CC3)ncnc21 (racemic) [Example U57, 4-(3-chloro-4-(9-(3-chloro-2-fluoro-6-methoxybenzyl)-6-(1-methylcyclopropoxy)-9H-purin-8-yl)phenoxy)-2-methylbutanoic acid] | 126 nM | –
